Read-outs that look alike come from different tables or passages of the source.
What was measured:
[1] = for PCO2* at 40° C.: calculated from CO2 solubility curves
[2] = Solubility measurements of CO2 loaded PZ/1-MPZ/1,4-DMPZ blends; assay type: physicochemical
Procedure: Solubility measurements for CO2 loaded 3.9 m PZ/3.9 m 1-MPZ/0.2 m 1,4-DMPZ and 3.75 m PZ/3.75 m 1-MPZ/0.5 m 1,4-DMPZ solutions were taken to predict the solubility envelope of these blends. The solubility of the blends at varying loadings and temperatures are shown in FIG. 7 for the 3.9 m PZ/3.9 m 1-MPZ/0.2 m 1,4-DMPZ blend and in FIG. 8 for the 3.75 m PZ/3.75 m 1-MPZ/0.5 m 1,4-DMPZ blend. […] At 0° C., the 8 m blend: 3.75 m PZ/3.75 m 1-MPZ/0.5 m […] was soluble at 2° C. with a lean loading of 0.17 mol CO2/mol alkalinity, in contrast to 8 m PZ, which must be operated at loading above 0.3 to avoid solids precipitation.
A maximum CO2 loading of 0.41 and 0.39 was obtained for the 3.9 m PZ/3.9 m 1-MPZ/0.2 m 1,4-DMPZ blend and the 3.75 m PZ/3.75 m 1-MPZ/0.5 m 1,4 DMPZ blend respectively at room temperature without any solid precipitation. Intermediary loaded solutions were prepared by appropriately mixing the rich loaded and zero loaded solutions and observed at temperatures between 0° C. and the melting point of the solution.

[3] = Freeman et al., 2009; cited from earlier work
[4] = Cyclic CO2 capacity calculated from the regressed VLE model; assay type: physicochemical
[5] = Heat of CO2 absorption calculated from the VLE model; assay type: physicochemical
Procedure: VLE models of CO2 partial pressure were regressed from experimental data to calculate CO2 capacity and enthalpy of CO2 absorption (ΔHabs).
Heat of absorption was calculated from the model mentioned above by applying the following thermodynamic equation: […]
Heat of absorption was calculated from the model mentioned above by applying the Gibbs-Helmholtz equation: […]
The heat absorption of CO2 at a 1.5 kPa, which is an average CO2 partial pressure for lean and rich solutions, was calculated.

[6] = 25° C.; cited from earlier work
[7] = Solubility and solids precipitation limits of amines in water; assay type: physicochemical
[8] = CO2 Loading 0.035 mol/mole Alkalinity
[9] = CO2 Loading 0.037 mol/mole Alkalinity
[10] = CO2 Loading 0.102 mol/mole Alkalinity
[11] = CO2 Loading 0.104 mol/mole Alkalinity
[12] = CO2 Loading 0.156 mol/mole Alkalinity
[13] = CO2 Loading 0.158 mol/mole Alkalinity
[14] = CO2 Loading 0.209 mol/mole Alkalinity
[15] = CO2 Loading 0.217 mol/mole Alkalinity
[16] = CO2 Loading 0.251 mol/mole Alkalinity
[17] = CO2 Loading 0.266 mol/mole Alkalinity
[18] = CO2 Loading 0.303 mol/mole Alkalinity
[19] = CO2 Loading 0.313 mol/mole Alkalinity, listed as 8 m PZ
[20] = CO2 Loading 0.313 mol/mole Alkalinity, listed as 10 m PZ
[21] = CO2 Loading 0.330 mol/mole Alkalinity
[22] = Conc. (m): MDEA/PZ 7/2, PZ 8, MEA 7, HEP 7.7, AEP 6, 2-PE 8, AMP 4.8, EDA 12, DGA 10, PZ-MPZ 4/4, MPZ 8

C1CNCCN1 [PZ, piperazine]
PCO2* at 40° C. ([1]; CO2 Loading 0 mol/mole Alkalinity): 0.0014 kPa | Transition Temp ([1]; CO2 Loading 0 mol/mole Alkalinity, listed as 8 m PZ): 43.0 °C | Transition Temp ([1]; CO2 Loading 0 mol/mole Alkalinity, listed as 10 m PZ): 43 °C | Transition Temp [1, 8]: 40.0 °C | PCO2* at 40° C. [1, 8]: 0.0023 kPa | Transition Temp [1, 9]: 40.5 °C | PCO2* at 40° C. [1, 9]: 0.0023 kPa | Transition Temp [1, 10]: 38.5 °C | PCO2* at 40° C. [1, 10]: 0.0068 kPa | Transition Temp [1, 11]: 38.5 °C | PCO2* at 40° C. [1, 11]: 0.0070 kPa | Transition Temp [1, 12]: 35 °C | PCO2* at 40° C. [1, 12]: 0.0179 kPa | Transition Temp [1, 13]: 33.0 °C | PCO2* at 40° C. [1, 13]: 0.0185 kPa | Transition Temp [1, 14]: 26.5 °C | PCO2* at 40° C. [1, 14]: 0.0499 kPa | Transition Temp [1, 15]: 27 °C | PCO2* at 40° C. [1, 15]: 0.0589 kPa | Transition Temp [1, 16]: 18.0 °C | PCO2* at 40° C. [1, 16]: 0.1216 kPa | Transition Temp [1, 17]: 18 °C | PCO2* at 40° C. [1, 17]: 0.1679 kPa | Transition Temp [1, 18]: 3.0 °C | PCO2* at 40° C. [1, 18]: 0.3892 kPa | PCO2* at 40° C. [1, 19]: 0.4862 kPa | PCO2* at 40° C. [1, 20]: 0.4830 kPa | Transition Temp [1, 19]: 0 °C | Transition Temp [1, 20]: 5.5 °C | Transition Temp [1, 21]: 0 °C | PCO2* at 40° C. [1, 21]: 0.7252 kPa | CO2 loading needed to maintain an aqueous solution ([1]; room temperature (21° C.)): 0.23 mole CO2 per mole alkalinity | highest CO2 loading usable without risk of solid precipitation ([1]; solvent at 0° C.): ≤ 0.4 moles CO2/equiv PZ | lowest CO2 loading usable without risk of solid precipitation ([1]; solvent at 0° C.): ≥ 0.3 moles CO2/equiv PZ | CO2 loadings at which solid H+PZCOO−.H2O is formed [2]: ≥ 0.43 | loading above which the solvent must be operated to avoid solids precipitation ([2]; 0° C.): above 0.3 | CO2 loadings at which solid PZ.6H2O is formed ([2]; 25° C.): ≤ 0.22 | temperature up to which highly resistant to thermal degradation [3]: up to 150 °C | CO2 Capacity [4, 22]: 0.79 mol/kg (water + amine) | cyclic CO2 capacity ([4]; difference between lean and rich CO2 loading at 500 Pa and 5,000 Pa CO2 partial pressure): 0.79 mol CO2/kg (water+amine) | Heat of CO2 absorption (ΔHabs) ([5]; 8 m MPZ, 4 m PZ/4 m MPZ blend, 8 m PZ): 16.7 kcal/mol | ΔHabs@PCO2 = 1.5 kPa [5, 22]: 16.7 kcal/mol | heat absorption of CO2 ([5]; at 1.5 kPa CO2 partial pressure): 16.7 kcal/mol | solubility in water [6]: less than 2 M | oxidative degradation [7]: resistant to oxidative degradation | CO2 loading below which PZ.6 H2O solids precipitate ([7]; 0° C.): less than 0.3 | CO2 loading above which protonated piperazine carbamate precipitates ([7]; ambient temperature): greater than 0.45 moles/equivalent amine | solubility in water ([7]; zero CO2 loading, ambient temperatures, precipitation of PZ.6H2O): about 2 m
